# In patent US20140099354A1, “BIOPASSIVATING MEMBRANE STABILIZATION BY MEANS OF NITROCARBOXYLIC ACID-CONTAINING PHOSPHOLIPIDS IN PREPARATIONS AND COATINGS” (priority 2011, published 2014):
# How the values were obtained:
# sciatic nerve = test: Viability of cryopreserved nerve grafts (Annexin-V staining, FACS); assay type: cell-based, rats; conditions: 100 mmolar solution 1 hour; −30° C. 72 hours
# Procedure: The sciatic nerve was prepared and sectured in anesthetized rats. The nerve pieces were freed from connective tissue and divided into 3 parts. Specimens were placed in culture DMEM medium containing low a concentration of glucose (1 g/L) with L-glutamine (PAA, Pasching Austria) for 24 hours. […] Nerve specimens from the same animals that received no pretreatment served as controls. After incubation, the specimens were cultured for 24 hours. In a further control group, specimens were cryopreserved without any pretreatment. The specimens were covered with a sterile gauze pad moistened with culture medium. Thereafter the temperature was gradually cooled to −30° C. After 72 hours, the nerve pieces were gradually rewarmed to 37° C. After this, renewed culturing was done for 48 hours. The nerve pieces were dissected enzymatically then (collagenase A and D, Roche, Mannheim, Germany) followed by a mechanical separation through multiple uptake and release in a glass pipette. The isolated cells were washed and marked with a living/death staining (Annexin-V-Fluos staining Kit, Roche Diagnostics, Mannheim, Germany) and quantified using FACS analysis. The number of living cells identified was set in relation to the total cells count.
# ovarian tissue strips = test: Cryopreservation of ovarian tissue strips: intact follicles; conditions: liquid nitrogen 14 days, cultured 14 days
# [1] = test system: Cardiac muscle cells derived from neonatal rat heart; test: Hypoxia of cardiac muscle cells (viability, mitochondrial NAD+); assay type: cell-based; conditions: for mitochondrial NAD+ content: hypoxia, baseline 5
# Procedure: Cardiac muscle cells derived from neonatal rat heart (Nitobe J, et al, Reactive oxygene species regulate FLICE inhibitory protein and susceptibility to FAS-mediated apoptosis in cardiac myocytes. Cardiovasc RES 2003, 119-28). The heart muscle cells were cultured in Dulbecco/Eagle medium (DMEM) with 10% FCS added under standard conditions for two days. Incubation with the natural and nitrated phospholipids, as well as the hypoxia experiments were carried out as described above. Incubated cells were grown in culture medium under standard conditions for 24 hours. This is followed by a vitality staining as described above. […] The frozen cells were thawed up to -4° C. and homogenized for subsequent NAD^+ analyses. By means of differential centrifuge, pellets containing mitochondria were separated (Di Lisa, et al, 1993; Am. J. Physiol. 264, […]-[…]). The NAD^+ content was determined by fluoroscopy, and normalized to the protein content (Veloso, D., and […]., 1974;) Anal. Biochem., 449-450).
# cortical neurons = test: Hypoxia and reperfusion of cortical neurons (viability, LDH); conditions: for results of the hypoxia experiments compared with reference nitrated phospholipids: neurons and cardiac myocytes, 10 to 50 μmol/l
Compound,proportion of living cells relative to non-frozen control (sciatic nerve) [%],rate of intact follicles relative to the control group (ovarian tissue strips) [%],other results
1-Palmitoyl-2-(E-9-nitrooleoyl)-sn-3-glycero-phosphatidylinositol [PNOPI],82,,
"1,2-di-(9-nitro-α-linolenoyl)-sn-3-glycerophosphocholine, 1,2-di-(10-nitro-α-linolenoyl)-sn-3-glycerophosphocholine, 1-(9-nitro-α-linolenoyl)-2-(10-nitro-α-linolenoyl)-sn-3-glycerophosphocholine and 1-(10-nitro-α-linolenoyl)-2-(9-nitro-α-linolenoyl)-sn-3-glycerophosphocholine [Example N11]",,95,
"CCCCC/C=C\C/C=C\CCCCCCCC(=O)O[C@H](COC(=O)CCCCCCCCCCCCCCC)COP(=O)([O-])OCC[N+](C)(C)C [PLPC, 1-Palmitoyl-2-linoleoyl-sn-glycero-3-PC, reference compound]",,,loss of viability of heart muscle cells after hypoxia ([1]; (10 minutes)): 16%; loss of viability of heart muscle cells after hypoxia ([1]; (30 minutes)): 42%; mitochondrial NAD+ content ([1]; first printed value): 2.4 nmol/mg protein; mitochondrial NAD+ content ([1]; second printed value): 0.7 nmol/mg protein; increase in LDH versus normoxemia culture (cortical neurons; 10-minutes ischemia): 380 fold; viability of cortical cells measured after 24 hours (cortical neurons; 10-minutes ischemia): 30%; increase in LDH versus normoxemia culture (cortical neurons; 30-minutes ischemia): 630 fold; viability of cortical cells measured after 24 hours (cortical neurons; 30-minutes ischemia): 0%
"1,2-di-(dinitro-α-linolenoyl)-sn-glycero-3-phosphatidylcholines [Example N14]",81,,
"1,2-Di-(9-hydroxy-10-nitrostearoyl)-sn-3-glycerophosphocholine, 1-(9-hydroxy-10-nitrostearoyl)-2-(10-hydroxy-9-nitrostearoyl)-sn-3-glycerophosphocholine, 1-(10-hydroxy-9-nitrostearoyl)-2-(9-hydroxy-10-nitrostearoyl)-sn-3-glycerophosphocholine and 1,2-di-(10-hydroxy-9-nitrostearoyl)-sn-3-glycerophosphocholine [Example O3]",,91,
"1,2-di-(9-nitrogadleoyl)-sn-3-glycerophosphocholine, 1,2-di-(10-nitrolinoleoyl)-sn-3-glycerophosphocholine, 1-(9-nitrolinoleoyl)-2-(10-nitrogadoleoyl)-sn-3-glycerophosphocholine and 1-(10-nitrogadoleoyl)-2-(9-nitrogadoleoyl)-sn-3-glycerophosphocholine [Example N9]",79,90,
1-eicosapentaenoyl-2-(5-nitro-EPA)-sn-3-glycerophosphocholine and 1-eicosapentaenoyl-2-(6-nitro-EPA)-sn-3-glycerophosphocholine [Example P4],74,93,
"CC/C=C(\C/C=C\C/C=C\CCCCCCCC(=O)OC[C@H](COP(=O)([O-])OCC[N+](C)(C)C)OC(=O)CCCCCCC/C=C\C/C=C\C/C(=C\CC)[N+](=O)[O-])[N+](=O)[O-] [Example N20, 1,2-di-(E-15-nitro-α-linolenoyl)-sn-3-glycerophosphocholine]",82,,
"1,2-di-(dinitrolinoleoyl)-sn-glycero-3-phosphatidylcholines [Example N12]",,88,
"1,2-di-(nitro-γ-linolenoyl)-sn-glycero-3-phosphatidylcholines [Example N5]",,89,
"CCCCCCCC/C=C\CCCCCCCC(=O)O[C@H](COC(=O)CCCCCCCCCCCCCCC)COP(=O)(O)OC1[C@H](O)[C@H](O)C(O)[C@H](O)[C@H]1O (stereo partly drawn) [POPI, 1-Palmitoyl-2-oleoyl-sn-3-glycero-phosphatidylinositol, reference compound]",20,,
1-Palmitoyl-2-(9-hydroxy-10-nitrostearoyl)-sn-3-glycerophosphocholine and 1-palmitoyl-2-(10-hydroxy-9-nitrostearoyl)-sn-3-glycerophosphocholine [Example O4],,93,
"1,2-di-(nitroarachidonoyl)-sn-glycero-3-phosphatidylcholines [Example N4]",,92,
"CCCCCCCCCCCCCCCC(=O)OC[C@H](COP(=O)([O-])OCC[N+](C)(C)C)OC(=O)CCCCCCCC(C(O)CCCCCCCC)[N+](=O)[O-] (stereo partly drawn) [Example O2, 1-palmitoyl-2-(9-nitro-10-hydroxy-stearoyl)-sn-3-glycerophosphocholine]",,87,
"CC/C=C\C/C=C\C/C=C\C/C=C\C/C=C\C/C=C\CCC(=O)OC[C@H](COP(=O)([O-])OCC[N+](C)(C)C)OC(=O)CCCCCCC/C=C(\CCCCCC)[N+](=O)[O-] [Example P11, 1-DHA-2-(E-10-nitropalmitoleoyl)-sn-3-glycerophosphocholine]",,97,
1-Palmitoyl-2-(10-hydroxy-9-nitro-α-linolenoyl)-sn-3-glycerophosphocholine and 1-palmitoyl-2-(9-hydroxy-10-nitro-α-linolenoyl)-sn-3-glycerophosphocholine [Example O6],78,,results of the hypoxia experiments compared with reference nitrated phospholipids (cortical neurons): slightly worse results
"1,2-di-(5-nitroeicosapentaenoyl)-sn-3-glycerophosphocholine, 1,2-di-(6-nitroeicosapentaenoyl)-sn-3-glycerophosphocholine, 1-(5-nitroeicosapentaenoyl)-2-(6-nitroeicosapentaenoyl)-sn-3-glycerophosphocholine and 1-(6-nitroeicosapentaenoyl)-2-(5-nitroeicosapentaenoyl)-sn-3-glycerophosPhocholine [Example N10]",82,98,
"1,2-di-(dinitroeicosapentaenoyl)-sn-glycero-3-phosphatidylcholines [Example N13]",,91,
"1,2-di-(hydroxyl, nitro-8,11,14,17-eicosatetraenoyl)-sn-3-glycerophosphocholine [Example O5]",,,results of the hypoxia experiments compared with reference nitrated phospholipids (cortical neurons): slightly worse results
"1,2-di-(nitroarachidonoyl)-sn-glycero-3-phosphatidylcholines [Example N3]",,94,
"CCCCCC/C(=C\CCCCCCCC(=O)OC[C@H](COP(=O)([O-])OCC[N+](C)(C)C)OC(=O)CCCCCCC/C=C(\CCCCCC)[N+](=O)[O-])[N+](=O)[O-] [Example N19, 1,2-di-(E-10-nitropalmitoleoyl)-sn-3-glycerophosphocholine]",84,,
"CCCCCCCC/C(=C\CCCCCCCC(=O)O[C@H](COC(=O)CCCCC1CCSS1)COP(=O)([O-])OCC[N+](C)(C)C)[N+](=O)[O-] (stereo partly drawn) [Example P9, 1-liponoyl-2-(E-10-nitrooleoyl)-sn-3-glycerophosphocholine]",,90,
1-oleoyl-2-(9-nitropalmitoleoyl)-sn-3-glycerophosphocholine and 1-oleoyl-2-(10-nitropalmitoleoyl)-sn-3-glycerophosphocholine [Example P1],90,,
1-erucinyl-2-(9-nitrogadoleoyl)-sn-3-glycerophosphocholine and 1-erucinyl-2-(10-nitrogadoleoyl)-sn-3-glycerophosphocholine [Example P3],90,97,
